Here are results for 61 compounds from PMC7660650, “Chemical Starting Matter for HNF4α Ligand Discovery and Chemogenomics” (International Journal of Molecular Sciences, 2020).

Several values for one entry are separate records, joined by “and”; a condition that tells them apart may be missing. Equal entries are not always repeated.

In the experiment the target is T1, Gal4-HNF4α (human HNF4α LBD) (Homo sapiens, UniProt P41235).
T1 construct: uniprot entry: P41235-1, residues 142-377; expressed in transfected cells; host or cells: HEK293T
T1 sequence (P41235 142-377): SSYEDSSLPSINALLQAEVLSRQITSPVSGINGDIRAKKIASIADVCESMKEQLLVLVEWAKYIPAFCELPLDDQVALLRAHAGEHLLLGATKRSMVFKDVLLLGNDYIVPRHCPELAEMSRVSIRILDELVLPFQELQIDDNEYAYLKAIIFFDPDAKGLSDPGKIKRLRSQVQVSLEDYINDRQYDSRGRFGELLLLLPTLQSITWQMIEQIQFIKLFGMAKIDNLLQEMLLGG
Nature of the experiment: Hybrid Gal4-HNF4α reporter gene assay in transiently transfected HEK293T cells. Conditions: Table S1, primary screening, 50 µM. Format: cell-based. (In general: A reporter such as luciferase makes a cellular process visible.)
As to `CN(C)C(=O)Oc1ccccc1` [Prestw-Frag-1540, CN(C)C(=O)Oc1ccccc1], the “HNF4a-screening_activity_(mean_of_n=2)” value is on record as 1.182.
As for `Nc1ccc([N+](=O)[O-])cc1Cl` [Prestw-Frag-1543, Nc1ccc(cc1Cl)[N+]([O-])=O], the figure is 0.9851; as for `COC(=O)C1=C(C)NC(C)=C(C(=O)OC)C1` [Prestw-Frag-1547, COC(=O)C1=C(C)NC(C)=C(C1)C(=O)OC], 0.9986; as for `CN1Cc2c(N)cccc2C(c2ccccc2)C1` (stereo not shown) [Prestw-Frag-1552, CN1CC(c2ccccc2)c2cccc(N)c2C1], 1.162.
The result for `CN1CCc2cccc(N)c2C1` [Prestw-Frag-1553, CN1CCc2cccc(N)c2C1] reads 1.039 and 1.009; that for `COc1ccc(N2CCN(c3ccc(N)cc3)CC2)cc1` [Prestw-Frag-1557, COc1ccc(cc1)N1CCN(CC1)c1ccc(N)cc1], 1.098.
The result for `O=c1[nH]nc(Cc2ccc(Cl)cc2)c2ccccc12` [Prestw-Frag-1559, Clc1ccc(Cc2n[nH]c(=O)c3ccccc23)cc1] reads 1.206 and 0.9531; that for `O=c1[nH]ncc2ccccc12` [Prestw-Frag-1560, O=c1[nH]ncc2ccccc12], 1.119.
Turning to `O=c1[nH]nc(Cc2ccccc2)c2ccccc12` [Prestw-Frag-1561, O=c1[nH]nc(Cc2ccccc2)c2ccccc12], the “HNF4a-screening_activity_(mean_of_n=2)” value was determined as 1.103.
As for `Cc1cc(C(C)(C)C)cc(C)c1CC1=NCCN1` [Prestw-Frag-1575, Cc1cc(cc(C)c1CC1=NCCN1)C(C)(C)C], the figure is 1.056; as for `O=c1[nH]c2ccccc2n1C1CCNCC1` [Prestw-Frag-1587, O=c1[nH]c2ccccc2n1C1CCNCC1], 1.041; as for `OCCOc1cccc2[nH]ccc12` [Prestw-Frag-1595, OCCOc1cccc2[nH]ccc12], 0.8145 and 1.05.
As for `CCN1CCCC1CNC(=O)c1ccc(N)cc1` (stereo not shown) [Prestw-Frag-1632, CCN1CCCC1CNC(=O)c1ccc(N)cc1], the figure is 0.8541.
In the case of `NCCc1c[nH]c2ccc(O)cc12` [Prestw-Frag-1643, NCCc1c[nH]c2ccc(O)cc12], the “HNF4a-screening_activity_(mean_of_n=2)” value is reported as 1.007.
As to `Oc1ccc2[nH]ccc2c1` [Prestw-Frag-1645, Oc1ccc2[nH]ccc2c1], the “HNF4a-screening_activity_(mean_of_n=2)” value worked out at 1.016.
Take `Cc1cc(N)no1` [Prestw-Frag-1647, Cc1cc(N)no1]: the “HNF4a-screening_activity_(mean_of_n=2)” value stood at 0.9773.
The result for `Nc1ccnn1-c1ccccc1` [Prestw-Frag-1648, Nc1ccnn1-c1ccccc1] reads 1.023; that for `OC(c1ccccc1)(c1ccccc1)C1CCNCC1` [Prestw-Frag-1654, OC(C1CCNCC1)(c1ccccc1)c1ccccc1], 1.142 and 1.152.
Regarding `NC(=O)CN1C(=O)c2ccccc2C1=O` [Prestw-Frag-1661, NC(=O)CN1C(=O)c2ccccc2C1=O], the “HNF4a-screening_activity_(mean_of_n=2)” value came to 1.028.
As for `Cc1ccc(S(=O)(=O)NC(N)=O)cc1` [Prestw-Frag-1667, Cc1ccc(cc1)S(=O)(=O)NC(N)=O], the figure is 1.077; as for `O=c1[nH]nc2ccccn12` [Prestw-Frag-1673, O=c1[nH]nc2ccccn12], 1.045; as for `O=C(O)C(CO)c1ccccc1` (stereo not shown) [Prestw-Frag-1686, OCC(C(O)=O)c1ccccc1], 1.109.
With `CC(N)COc1ccccc1` (stereo not shown) [Prestw-Frag-1691, CC(N)COc1ccccc1], the “HNF4a-screening_activity_(mean_of_n=2)” value is 0.7151 and 1.122.
As to `c1cc2c(s1)CCNC2` [Prestw-Frag-1694, C1Cc2sccc2CN1], the “HNF4a-screening_activity_(mean_of_n=2)” value was 1.028 and 1.127.
As for `Clc1cccc(CN2CCNCC2)c1` [Prestw-Frag-1700, Clc1cccc(CN2CCNCC2)c1], the figure is 1.014 and 1.092; as for `Clc1ccc(-c2cncnc2)cc1` [Prestw-Frag-1704, Clc1ccc(cc1)-c1cncnc1], 0.9459 and 1.223.
The result for `CCCC(=O)Nc1ccc(O)c(C(C)=O)c1` [Prestw-Frag-1716, CCCC(=O)Nc1ccc(O)c(c1)C(C)=O] reads 0.8359; that for `CCCC(=O)Nc1cccc(C(C)=O)c1` [Prestw-Frag-1717, CCCC(=O)Nc1cccc(c1)C(C)=O], 0.9496 and 0.8871; that for `c1ccc2c(c1)CNc1ccccc1C2` [Prestw-Frag-1722, C1Nc2ccccc2Cc2ccccc12], 1.196 and 1.047.
As for `COc1cc(C(N)=O)cc(OC)c1OC` [Prestw-Frag-1731, COc1cc(cc(OC)c1OC)C(N)=O], the figure is 0.8442.
For `CCN(CC)CCOC(=O)c1ccccc1` [Prestw-Frag-1735, CCN(CC)CCOC(=O)c1ccccc1], the “HNF4a-screening_activity_(mean_of_n=2)” value was 0.9109 and 1.027.
As for `O=C1CCOc2ccccc21` [Prestw-Frag-1740, O=C1CCOc2ccccc12], the figure is 0.9806.
Take `Clc1ccc(C(c2ccccc2)N2CCNCC2)cc1` (stereo not shown) [Prestw-Frag-1741, Clc1ccc(cc1)C(N1CCNCC1)c1ccccc1]: the “HNF4a-screening_activity_(mean_of_n=2)” value worked out at 1.086.
The result for `CC(=O)NCc1cccnc1` [Prestw-Frag-1745, CC(=O)NCc1cccnc1] reads 0.9231 and 1.026; that for `O=C(NCc1cccnc1)c1ccc(O)cc1` [Prestw-Frag-1747, Oc1ccc(cc1)C(=O)NCc1cccnc1], 0.7115 and 0.9722; that for `CC(=O)Nc1ncc([N+](=O)[O-])s1` [Prestw-Frag-1750, CC(=O)Nc1ncc(s1)[N+]([O-])=O], 1.04 and 0.8827.
As for `O=C(O)CCCc1ccc(-c2ccccc2)cc1` [Prestw-Frag-1767, OC(=O)CCCc1ccc(cc1)-c1ccccc1], the figure is 0.6264.
As for `Fc1cccc(F)c1N1CCNCC1` [Prestw-Frag-1806, Fc1cccc(F)c1N1CCNCC1], the figure is 0.9867 and 1.428; as for `COc1ccc(OCC(N)=O)cc1` [Prestw-Frag-1812, COc1ccc(OCC(N)=O)cc1], 0.9996 and 1.207.
Turning to `c1ccc(C(c2ccccc2)N2CCCNCC2)cc1` [Prestw-Frag-1817, C1CNCCN(C1)C(c1ccccc1)c1ccccc1], the “HNF4a-screening_activity_(mean_of_n=2)” value was 0.7059 and 1.011.
As for `NC(=O)COc1ccc(Cl)cc1` [Prestw-Frag-1833, NC(=O)COc1ccc(Cl)cc1], the figure is 1.468 and 0.8655; as for `Cc1ccccc1NC(=O)C(C)N` (stereo not shown) [Prestw-Frag-1856, CC(N)C(=O)Nc1ccccc1C], 1.062 and 1.114; as for `CS(=O)(=O)Nc1ccccc1Oc1ccccc1` [Prestw-Frag-1861, CS(=O)(=O)Nc1ccccc1Oc1ccccc1], 1.046 and 0.7818.
As for `COC(=O)C(O)(c1ccccc1)C1CCCCC1` (stereo not shown) [Prestw-Frag-1867, COC(=O)C(O)(C1CCCCC1)c1ccccc1], the figure is 1.91 and 1.155.
The result for `O=C1Nc2ccccc2Nc2ccccc21` [Prestw-Frag-1904, O=C1Nc2ccccc2Nc2ccccc12] reads 1.665 and 0.9141.
For the compound `CCCOc1ccccc1C(=N)N` [Prestw-Frag-1910, CCCOc1ccccc1C(N)=N], the “HNF4a-screening_activity_(mean_of_n=2)” value is 1.045 and 1.109.
As for `NCCOC(c1ccc(F)cc1)c1ccc(F)cc1` [Prestw-Frag-1925, NCCOC(c1ccc(F)cc1)c1ccc(F)cc1], the figure is 1.095 and 1.195; as for `CC(C)(C)NCC(O)c1ccccc1` (stereo not shown) [Prestw-Frag-1929, CC(C)(C)NCC(O)c1ccccc1], 1.143.
As for `OCCCN1CCN(c2ccccc2)CC1` [Prestw-Frag-1944, OCCCN1CCN(CC1)c1ccccc1], the figure is 1.133; as for `OCCN1CCN(c2ccccc2)CC1` [Prestw-Frag-1945, OCCN1CCN(CC1)c1ccccc1], 1.061.
Regarding `CN1CCN(c2ccccc2)CC1` [Prestw-Frag-1946, CN1CCN(CC1)c1ccccc1], the “HNF4a-screening_activity_(mean_of_n=2)” value amounted to 1.048.
As for `O=C(CCN1CCCCC1)c1ccccc1` [Prestw-Frag-1953, O=C(CCN1CCCCC1)c1ccccc1], the figure is 0.8568; as for `NS(=O)(=O)c1ccc(Cl)cc1` [Prestw-Frag-1977, NS(=O)(=O)c1ccc(Cl)cc1], 0.8584.
Take `CCN(CC)CCOc1ccc(C(C)=O)cc1` [Prestw-Frag-2005, CCN(CC)CCOc1ccc(cc1)C(C)=O]: the “HNF4a-screening_activity_(mean_of_n=2)” value is given as 1.006.
As for `O=C(O)C1(c2ccccc2)CCCC1` [Prestw-Frag-2049, OC(=O)C1(CCCC1)c1ccccc1], the figure is 0.9983; as for `NS(=O)(=O)c1ccc(C(=O)O)cc1` [Prestw-Frag-2123, NS(=O)(=O)c1ccc(cc1)C(O)=O], 0.9355; as for `CC(C)NCC(O)c1ccccc1` (stereo not shown) [Prestw-Frag-2168, CC(C)NCC(O)c1ccccc1], 1.078.
As for `COc1ccc(OC)c(C(C)O)c1` (stereo not shown) [Prestw-Frag-2208, COc1ccc(OC)c(c1)C(C)O], the figure is 1.098.
As for `COc1ccc(CN2CCNCC2)cc1` [Prestw-Frag-2212, COc1ccc(CN2CCNCC2)cc1], the figure is 1.195; as for `CS(=O)(=O)c1ccc(CO)cc1` [Prestw-Frag-2234, CS(=O)(=O)c1ccc(CO)cc1], 0.954.
Consider `CC(O)(c1ccccc1)c1ccccn1` (stereo not shown) [Prestw-Frag-2237, CC(O)(c1ccccc1)c1ccccn1], for which the “HNF4a-screening_activity_(mean_of_n=2)” value amounted to 0.9394.
